From ChEMBL document CHEMBL1201862, “PubChem BioAssay data set” (2004)
Active and inactive are the calls of the source.

Legend:
SUMO E1/E2 = SUMO E1/E2 (Homo sapiens, UniProt P63279+Q9UBE0+Q9UBT2); test: SAR analysis of SUMOylation using HTRF in an in-Vitro dose response assay. [Related pubchem assays (depositor defined):AID2006, AID2011, AID2018, AID2069, AID2658]; assay type: functional
HEK293 = test: NOD1 signaling inhibitors, primary screen, cell-based, luminescence, uHTS (AID 1578); assay type: functional; settings: Homo sapiens
[1] = biological target: Nucleotide-binding oligomerization domain-containing protein 2 (Homo sapiens, UniProt Q9HC29); test: NOD2 signaling inhibitors, cell-based, luminescence, uHTS, HEK293 (AID 1566); assay type: functional
Nucleotide-binding oligomerization domain-containing protein 2, sequence (Q9HC29 whole entry, the tested form may be a part): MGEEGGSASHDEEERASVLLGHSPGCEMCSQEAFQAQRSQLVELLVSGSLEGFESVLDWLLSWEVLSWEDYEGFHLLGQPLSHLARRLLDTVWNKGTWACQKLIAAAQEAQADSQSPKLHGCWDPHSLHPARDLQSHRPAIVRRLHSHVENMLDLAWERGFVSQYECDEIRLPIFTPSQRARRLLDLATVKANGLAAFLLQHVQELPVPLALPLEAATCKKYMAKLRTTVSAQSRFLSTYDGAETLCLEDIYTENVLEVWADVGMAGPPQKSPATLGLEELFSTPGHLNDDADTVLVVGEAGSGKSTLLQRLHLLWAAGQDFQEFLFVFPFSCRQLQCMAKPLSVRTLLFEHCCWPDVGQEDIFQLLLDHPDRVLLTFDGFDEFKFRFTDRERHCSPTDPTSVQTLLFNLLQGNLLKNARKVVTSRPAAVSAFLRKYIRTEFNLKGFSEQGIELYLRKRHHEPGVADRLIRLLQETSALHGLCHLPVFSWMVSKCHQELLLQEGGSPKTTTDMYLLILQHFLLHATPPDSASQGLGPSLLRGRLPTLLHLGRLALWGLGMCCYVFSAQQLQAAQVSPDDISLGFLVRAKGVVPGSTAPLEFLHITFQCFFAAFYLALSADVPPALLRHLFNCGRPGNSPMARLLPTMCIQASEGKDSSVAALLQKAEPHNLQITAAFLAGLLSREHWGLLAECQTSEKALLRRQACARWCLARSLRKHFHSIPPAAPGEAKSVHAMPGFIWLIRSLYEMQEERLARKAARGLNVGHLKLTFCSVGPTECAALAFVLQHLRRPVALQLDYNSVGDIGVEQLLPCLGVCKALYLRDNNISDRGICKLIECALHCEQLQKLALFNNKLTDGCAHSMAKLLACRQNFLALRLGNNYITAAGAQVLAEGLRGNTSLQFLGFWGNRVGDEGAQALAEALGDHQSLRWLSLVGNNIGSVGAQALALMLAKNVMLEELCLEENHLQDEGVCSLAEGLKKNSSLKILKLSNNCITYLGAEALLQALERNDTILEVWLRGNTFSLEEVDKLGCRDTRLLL

H4 = test: Inhibitors of Prion Protein 5' UTR mRNA Measured in Cell-Based System Using Plate Reader - 2078-01_Inhibitor_Dose_DryPowder_Activity. [Related pubchem assays (depositor defined):AID488894]; assay type: functional; settings: Homo sapiens
[2] = inhibitors of intracellular T. cruzi replication, confirmation, NIH3T3 host cells, beta-gal luminescence (AID 2044); assay type: functional, cell-based;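 further: intracellular parasites grown in NIH/3T3 mouse fibroblasts as host cells; luminescent beta-galactosidase reporter signal from transgenic T. cruzi replicating inside host cells; inhibitors lower the luminescence signal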
[3] = biological target: T1, Serine/threonine-protein phosphatase (Homo sapiens, UniProt Q9BPW0); test: PP5 phosphatase inhibitors, dose response, biochemical, fluorescence (AID 2395)
T1 sequence (Q9BPW0 whole entry): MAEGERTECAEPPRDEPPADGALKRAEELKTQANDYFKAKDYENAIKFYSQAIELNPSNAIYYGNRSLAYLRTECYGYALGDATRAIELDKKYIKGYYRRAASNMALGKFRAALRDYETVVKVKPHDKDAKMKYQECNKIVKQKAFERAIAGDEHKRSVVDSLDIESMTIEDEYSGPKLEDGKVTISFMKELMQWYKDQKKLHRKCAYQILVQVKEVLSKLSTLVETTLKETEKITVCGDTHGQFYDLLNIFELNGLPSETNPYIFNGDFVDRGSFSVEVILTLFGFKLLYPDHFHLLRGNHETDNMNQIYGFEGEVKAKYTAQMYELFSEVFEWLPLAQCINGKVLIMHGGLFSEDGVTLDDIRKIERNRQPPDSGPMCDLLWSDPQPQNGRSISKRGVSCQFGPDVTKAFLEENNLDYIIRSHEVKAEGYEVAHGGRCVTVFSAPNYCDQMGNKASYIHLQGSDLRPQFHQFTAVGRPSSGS

Caspase-3 = biological target: T2, Caspase-3 (Homo sapiens, UniProt P42574); test: SAR Analysis of small molecule inhibitors of Sentrin-specific proteases (SENPs) using a Caspase-3 Selectivity assay. [Related pubchem assays (depositor defined):AID2540, AID2599, AID434973, AID489001]; assay type: functional
T2 sequence (P42574 whole entry): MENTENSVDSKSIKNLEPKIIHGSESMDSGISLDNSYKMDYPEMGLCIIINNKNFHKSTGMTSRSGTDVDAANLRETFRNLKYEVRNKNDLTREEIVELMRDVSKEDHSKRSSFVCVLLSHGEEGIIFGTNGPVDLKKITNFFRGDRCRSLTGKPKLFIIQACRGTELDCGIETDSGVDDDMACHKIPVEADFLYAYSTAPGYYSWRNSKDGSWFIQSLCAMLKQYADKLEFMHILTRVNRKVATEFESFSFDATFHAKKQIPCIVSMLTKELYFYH

SUMO E1/E2, sequence (Q9UBE0 whole entry): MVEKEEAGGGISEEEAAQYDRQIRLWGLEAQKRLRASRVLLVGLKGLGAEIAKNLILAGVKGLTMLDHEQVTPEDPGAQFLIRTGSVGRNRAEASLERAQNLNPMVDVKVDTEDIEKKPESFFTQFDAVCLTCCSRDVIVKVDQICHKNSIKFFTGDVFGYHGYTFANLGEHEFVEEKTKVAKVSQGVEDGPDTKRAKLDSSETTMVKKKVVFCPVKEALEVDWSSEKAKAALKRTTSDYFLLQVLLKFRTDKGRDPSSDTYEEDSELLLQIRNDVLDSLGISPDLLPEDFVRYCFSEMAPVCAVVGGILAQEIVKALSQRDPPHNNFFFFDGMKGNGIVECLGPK
SUMO E1/E2, sequence (Q9UBT2 whole entry): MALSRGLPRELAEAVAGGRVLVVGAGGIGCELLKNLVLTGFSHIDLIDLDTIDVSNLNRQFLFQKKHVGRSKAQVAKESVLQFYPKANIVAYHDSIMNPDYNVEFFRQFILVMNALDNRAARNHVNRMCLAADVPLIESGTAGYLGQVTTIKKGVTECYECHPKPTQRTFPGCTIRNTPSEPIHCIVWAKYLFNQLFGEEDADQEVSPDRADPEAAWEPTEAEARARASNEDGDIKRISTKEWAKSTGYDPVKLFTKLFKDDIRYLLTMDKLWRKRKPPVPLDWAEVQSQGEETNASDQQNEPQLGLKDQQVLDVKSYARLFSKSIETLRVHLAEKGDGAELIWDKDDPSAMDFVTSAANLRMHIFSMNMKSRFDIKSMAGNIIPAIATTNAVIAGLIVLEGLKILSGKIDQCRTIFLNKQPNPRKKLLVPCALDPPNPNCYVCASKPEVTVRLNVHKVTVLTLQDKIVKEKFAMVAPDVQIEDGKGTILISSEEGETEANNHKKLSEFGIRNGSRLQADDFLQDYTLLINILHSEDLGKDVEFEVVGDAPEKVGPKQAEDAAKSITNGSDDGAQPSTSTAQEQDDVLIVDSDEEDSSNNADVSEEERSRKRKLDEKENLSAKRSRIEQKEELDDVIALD
SUMO E1/E2, sequence (P63279 whole entry): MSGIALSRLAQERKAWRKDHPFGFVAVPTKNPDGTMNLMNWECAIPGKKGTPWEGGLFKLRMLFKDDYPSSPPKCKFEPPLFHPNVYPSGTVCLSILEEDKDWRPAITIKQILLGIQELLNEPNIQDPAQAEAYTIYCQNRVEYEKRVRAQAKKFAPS

Compound: COC(=O)c1cccc(-c2ccc(C(c3c(C)n[nH]c3O)c3c(C)n[nH]c3O)o2)c1
- IC50 (SUMO E1/E2): > 100 µM (inactive)

Compound: Cc1cc(/C=C2\SC(=S)N(C)C2=O)c(C)n1-c1ccc(O)cc1
- EC50 (HEK293): 9.47 µM (active)
- EC50 [1]: 570 nM (active)
- AC50 (H4): 181 nM (active)

Compound: Cc1ccc(C(=O)NNc2cc(N3CCCC3)nc(N3CCCC3)n2)cc1
- EC50 [2]: 2.3 µM (active)
- IC50 [3]: 4.1 µM (active)
- IC50 (Caspase-3): > 99 µM (inactive)
